In patent publication US6083920A, “Compositions for modulating intracellular inositol trisphosphate concentration” (priority 1996, dated 2000):

Legend:
[1] = tested on: InsP3 signalling in primary chick cortical neurons; test: Phosphoinositide hydrolysis assay (InsP3 signalling) in cultured primary cortical neurons; assay type: cell-based; settings: for Ins-P-n, modulator Lsm:Sph: 20 μM Lysosphingomyelin + 20 μM Sphingosine; for Ins-P-n, modulator Psy:Sph: 20 μM Psychosine + 20 μM Sphingosine; for fold induction at 100 µM: Gallus gallus, Cortical neurone, 20 min, read-out: Ins-P-n (agonist alone); for physiological effect in this system: amino group amidated, non-ionic
Experimental: Primary cultures of neurons were prepared from the telencephalon of white Leghorn chick embryos on the eighth day of their development (Rosenberg et al., J.Biol. Chem. 267:10601-10612, 1992). The neurons were seeded in 24-well plastic tissue culture plates that had been coated with L-polylysine. The density of the neurons was 10^5 cells per well, and they were cultured in Dulbecco's modified Eagle's medium/Ham's high glucose F-12 medium (1:1, vol:vol) containing 500 ng/L sodium selenite, 500 μg/L transferrin, and 165 pmole/L EGF. The cultures were maintained at 37° C. under 5% CO2 in air for 4 days, by which time the cells had differentiated into neurite-bearing cortical granulocytic neurons. These cultures of mature embryonic neurons were used for phosphoinositide hydrolysis assays (as described in Example 2).
Receptor-stimulated and basal unstimulated hydrolysis of phosphoinositides was measured by the following procedure. In order to label the cellular phosphoinositides metabolically, the primary cultures of chick cortical neurons (described in Example 1) were incubated overnight with 0.5 ml Dulbecco's modified Eagle's medium containing 1 μCi [^3 H]myo-inositol per well. The cells were then washed twice with 1 ml Dulbecco's phosphate-buffered saline (PBS) and 0.5 ml of PBS containing 4.5 g/L glucose was added. Sphingosine, psychosine, lysosulphatide, or lysosphingomyelin, prepared as the hydrochloride salt dissolved in water, were then added to produce the desired extracellular concentration in specific wells, […] The cells were then washed twice with 1 ml PBS, and pre-incubated for 15 minutes at 37° C. with 0.5 ml PBS containing 10 mM LiCl and the compound to be tested was added. […] The tubes were vortexed thoroughly, then centrifuged at 500×g for 5 minutes to separate the aqueous and chloroform phases. For each sample, a 1.5-ml aliquot of the upper (aqueous) phase was applied to a small column containing BioRad AG1X8 resin (formate form). Free [^3 H]inositol and [^3 H]glycerophosphoinositol were washed through the column with 5 ml of a solution containing 5 mM sodium borate and 60 mM sodium formate. The total phosphorylated [^3 H] inositol fraction was eluted from the column for radiometric scintillation spectrometry analysis with 3 ml 1.0 M ammonium formate/0.1 M formic acid;
In addition, a 0.5 ml aliquot of the lower (chloroform) phase of each sample was analyzed radiometrically by scintillation spectrometry in order to determine the quantity of lipid-bound [^3 H]myo-inositol. Estimation of phosphoinositide hydrolysis by phospholipase C is based upon the quantity of [^3 H]inositol phosphates produced, and is expressed as the percentage of the latter relative to total free and componential [^3 H]inositol (dpm ammonium formate+dpm chloroform fractions).
Cultured primary chick cortical neurons that were prelabeled with [^3 H]myo-inositol were examined for enhanced InsP3 signalling in response to various agonists including glutamate, aspartate, and the metabotropic […] receptor agonists ibotenate and quisqualate.

[2] = tested on: calcium ion signalling in cortical neurons; test: Metabotropic receptor function: calcium ion signalling (fura 2) in intact cortical neurons; assay type: cell-based, chick; settings: 10 μM agonist, 30 minutes at 37° C., fura 2 fluorescence ratio
Experimental: Metabotropic receptor function was examined in intact neurons by assaying lysosphingolipid modulation of calcium ion signalling. Approximately 1×10^6 cortical neurons were cultured on rectangular L-polylysine-coated coverslips and loaded with lysocerebroside or lysosphingomyelin to a level of 150±20 pmoles per mg protein. The neurons were returned to complete Ham's high glucose medium/DMEM (1:1, vol:vol) and infiltrated with 5 μM fura 2/AM (Molecular Probes, Eugene, Oreg.). Fura 2 is a calcium chelator whose fluorescence absorbance shifts to shorter wavelength upon calcium ion binding is measurable in intact cells. A change in intraneuronal calcium ion concentration was monitored as a change in the fluorescence spectrum.
The neurons were exposed to 10 μM glutamate agonist (for example, ibotenate) for 30 minutes at 37° C. The coverslips were then transferred to quartz cuvettes in medium containing 250 μM sulfinpyrazone to prevent fura 2/AM diffusion. Fluorescence ratios were recorded in a Perkin-Elmer LS-5 Fluorescence Spectrometer thermostatted at 37° C. at excitation wavelengths of 340 and 380 nm, a nd emission measurement at 500 nm. Calcium ion signalling in agonist-stimulated neurons was 3.0±0.2 arbitrary units for ibotenate-exposed neurons.

rat C6 glioma cells = settings: cited from earlier work
[3] = Membrane insertion potential
[4] = then 100 μM agonist 20 min, normalized to control = 1.00

Molecule	Ins-P-n, modulator Lsm:Sph [1, 4]	Ins-P-n, modulator Psy:Sph [1, 4]	fold induction at 100 µM [1]	also measured
N[C@@H](CC(=O)O)C(=O)O [Aspartate, aspartate]	2.00 ± 0.05	2.65 ± 0.50	2.7 ± 0.06	Ins-P-n, modulator Lsm ([1]; neurons preincubated with 20 μM Lysosphingomyelin 30 min, washed, then 100 μM agonist 20 min, normalized to control = 1.00): 1.00 ± 0.06; Ins-P-n, modulator Psy ([1]; neurons preincubated with 20 μM Psychosine 30 min, washed, then 100 μM agonist 20 min, normalized to control = 1.00): 1.00 ± 0.06
N[C@@H](CCC(=O)O)C(=O)O [Glutamate, glutamate]	3.00 ± 0.10	3.00 ± 0.35	3.3 ± 0.05	
NC(C(=O)O)c1cc(O)no1 (stereo not drawn) [Ibotenate, ibotenate]	2.10 ± 0.10	3.10 ± 0.35	3 ± 0.1	calcium ion signalling in agonist-stimulated neurons [2]: 3.0±0.2 arbitrary units
CCCCCCCCCCCCC/C=C/[C@@H](O)[C@@H](N)CO[C@@H]1O[C@H](CO)[C@H](O)[C@H](OS(=O)(=O)O)[C@H]1O [Lysosulphatide]				inhibitory effect on InsP3 enhancement caused by sphingosine or metabotropic glutamate receptor agonists ([1]; cortical neurons): without inhibitory effect
CCCCCCCCCCCCC/C=C/[C@@H](O)[C@H](CO)NC(C)=O [N-acetyl sphingosine]				physiological effect in this system [1]: little or no physiological effect
CN(C)CCCN1c2ccccc2Sc2ccc(Cl)cc21 [chlorpromazine, 10-(3-dimethylaminopropyl)-2-chlorphenothiazine]				level of InsP3 (rat C6 glioma cells): raises the level of InsP3
CCCCCCCCCCCCCCC[C@@H](O)[C@@H](N)CO [sphinganine]				membrane insertion potential relative to sphingosine [3]: less than one third the membrane insertion potential of sphingosine
CN[C@@H]1C[C@H]2O[C@@](C)([C@@H]1OC)n1c3ccccc3c3c4c(c5c6ccccc6n2c5c31)C(=O)NC4 [staurosporine]				influence on the effects of sphingosine, lysocerebroside, or lysosphingomyelin on InsP3 production ([1]; brain neurons responsive to excitatory amino acids): does not influence
ceramide				physiological effect in this system [1]: little or no physiological effect
